Patent US20170007615A1, “Antibacterial Compounds” (priority 2014, published 2017)
Converted amounts (≈) assume the structure as drawn. Like-named read-outs stand apart in the source and are kept apart here.

Experiments:
B. cepacia (ATCC 25416) = assay: Antibacterial activity (MIC), alone and with colistin; assay type: cell-based, Burkholderia cepacia
[1] = system: E. coli drug resistant clinical isolates; assay: Antibacterial activity (MIC) against drug resistant clinical isolates, alone and with PMBN; assay type: cell-based; details: for MIC: Escherichia coli, read-out: MIC Compound alone
[2] = system: P. aeruginosa drug resistant clinical isolates; assay: as above; assay type: cell-based; details: for MIC: Pseudomonas aeruginosa, read-out: MIC Compound alone
[3] = system: A. baumannii drug resistant clinical isolates; assay: as above; assay type: cell-based; details: for MIC: Acinetobacter baumannii, read-out: MIC Compound alone
[4] = system: E. cloaceae drug resistant clinical isolates; assay: as above; assay type: cell-based; details: for MIC: read-out: MIC Compound alone
[5] = system: P. aeruginosa (MMX 1497) colistin-resistant strain; assay: Antibacterial activity (MIC) against colistin-resistant strains, alone and with colistin; assay type: cell-based
[6] = system: K. pneumonia colistin-resistant strains; assay: microbe, parasite or virus in culture; assay type: cell-based; details: for MIC: Klebsiella pneumoniae
[7] = system: E. coli colistin-resistant strains; assay: microbe, parasite or virus in culture; assay type: cell-based; details: for MIC: Escherichia coli
[8] = system: A. baumannii colistin-resistant strains; assay: microbe, parasite or virus in culture; assay type: cell-based; details: for MIC: Acinetobacter baumannii
E. coli (ATCC 25922) [9] = system: E. coli (ATCC 25922)
[10] = system: A. baumannii (ATCC 19606); details: Table 4
[11] = system: P. aeruginosa (ATCC 27853); details: Table 5
E. cloaceae (ATCC 13047) [12] = system: E. cloaceae (ATCC 13047)
[13] = system: F. philomiragia (ATCC 25015); details: Table 9
E. coli (ATCC 25922) [14] = assay: microbe, parasite or virus in culture; details: Escherichia coli
[15] = system: A. baumannii (ATCC 19606); assay: microbe, parasite or virus in culture; details: Acinetobacter baumannii, ATCC19606, read-out: MIC Compound alone
[16] = system: P. aeruginosa (ATCC 27853); assay: microbe, parasite or virus in culture; details: Pseudomonas aeruginosa, ATCC27853, read-out: MIC Compound alone
E. cloaceae (ATCC 13047) [17] = assay: microbe, parasite or virus in culture; details: Enterobacter cloacae, ATCC13047, read-out: MIC Compound alone
[18] = system: F. philomiragia (ATCC 25015); assay: microbe, parasite or virus in culture; details: Francisella philomiragia, ATCC25015, read-out: MIC Compound alone

Compound: CCNC(=O)Nc1nc2cc(-c3cnc([C@H](C)O)nc3)cc(-c3ccccn3)c2s1 [Example 23 (WO2013/138860), 1-ethyl-3-[5-[2-[(1S)-1-hydroxyethyl]pyrimidin-5-yl]-7-(2-pyridyl)-1,3-benzothiazol-2-yl]urea]
- MIC (B. cepacia (ATCC 25416); Burkholderia cepacia, ATCC25416, read-out: MIC Compound alone): > 64 µg/mL
- MIC of Compound (μg/ml) in the presence of colistin (2 μg/ml) (B. cepacia (ATCC 25416); Table 8, colistin non-inhibitory): 8 µg/mL
- MIC of Compound (μg/ml) in the presence of PMBN (128 μg/ml) ([1]; E. coli (MMX 1312)): ≦0.008 μg/ml
- MIC of Compound (μg/ml) in the presence of PMBN (128 μg/ml) ([1]; E. coli (MMX 2232)): ≦0.008 μg/ml
- MIC ([1]; E. coli (MMX 1312)): > 64 µg/mL
- MIC ([1]; E. coli (MMX 2232)): > 64 µg/mL
- MIC of Compound (μg/ml) in the presence of PMBN (128 μg/ml) ([2]; P. aeruginosa (MMX3007)): 0.25 µg/mL
- MIC of Compound (μg/ml) in the presence of PMBN (128 μg/ml) ([2]; P. aeruginosa (MMX3022)): 0.25 µg/mL
- MIC of Compound (μg/ml) in the presence of PMBN (128 μg/ml) ([2]; P. aeruginosa (MMX3025)): 0.12 µg/mL
- MIC of Compound (μg/ml) in the presence of PMBN (128 μg/ml) ([2]; P. aeruginosa (NCTC13437)): 0.25 µg/mL
- MIC ([2]; NCTC13437, P. aeruginosa (NCTC13437)): > 64 µg/mL
- MIC ([2]; P. aeruginosa (MMX3007)): > 64 µg/mL
- MIC ([2]; P. aeruginosa (MMX3022)): > 64 µg/mL
- MIC ([2]; P. aeruginosa (MMX3025)): > 64 µg/mL
- MIC of Compound (μg/ml) in the presence of PMBN (128 μg/ml) ([3]; A. baumannii (MMX 4454)): 0.5 µg/mL
- MIC of Compound (μg/ml) in the presence of PMBN (128 μg/ml) ([3]; A. baumannii (MMX 6331)): 0.25 µg/mL
- MIC ([3]; A. baumannii (MMX 4454)): 2 µg/mL (≈ 4.76 µM)
- MIC ([3]; A. baumannii (MMX 6331)): > 64 µg/mL
- MIC of Compound (μg/ml) in the presence of PMBN (128 μg/ml) ([4]; E. cloaceae (MMX 6087)): 2 µg/mL
- MIC ([4]; E. cloaceae (MMX 6087)): > 64 µg/mL
- MIC of Compound (μg/ml) in the presence of PMBN (128 μg/ml) ([4]; E. cloaceae (MMX 6093)): 0.5 µg/mL
- MIC ([4]; E. cloaceae (MMX 6093)): > 16 µg/mL
- MIC of Compound (μg/ml) in the presence of PMBN (128 μg/ml) ([4]; E. cloaceae (MMX 6095)): 8 µg/mL
- MIC ([4]; E. cloaceae (MMX 6095)): > 64 µg/mL
- MIC of Compound (μg/ml) in the presence of PMBN (128 μg/ml) ([4]; E. cloaceae (MMX 6304)): 1 µg/mL
- MIC ([4]; E. cloaceae (MMX 6304)): > 16 µg/mL
- MIC of Compound (μg/ml) in the presence of colistin (2 μg/ml) [5]: 4 µg/mL
- MIC ([5]; Pseudomonas aeruginosa, read-out: MIC Compound alone): > 64 µg/mL
- MIC of Compound (μg/ml) in the presence of colistin (2 μg/ml) ([6]; K. pneumonia colistin-resistant strain #1): 0.25 µg/mL
- MIC of Compound (μg/ml) in the presence of colistin (2 μg/ml) ([6]; K. pneumonia colistin-resistant strain #2): 0.25 µg/mL
- MIC of Compound (μg/ml) in the presence of colistin (2 μg/ml) ([6]; K. pneumonia colistin-resistant strain #3): 0.12 µg/mL
- MIC ([6]; read-out: MIC Compound alone, K. pneumonia colistin-resistant strain #1): 1 µg/mL (≈ 2.38 µM)
- MIC ([6]; read-out: MIC Compound alone, K. pneumonia colistin-resistant strain #2): 1 µg/mL (≈ 2.38 µM)
- MIC ([6]; read-out: MIC Compound alone, K. pneumonia colistin-resistant strain #3): 2 µg/mL (≈ 4.76 µM)
- MIC of Compound (μg/ml) in the presence of colistin (2 μg/ml) ([7]; E. coli colistin-resistant strain #1): 2 µg/mL
- MIC of Compound (μg/ml) in the presence of colistin (2 μg/ml) ([7]; E. coli colistin-resistant strain #2): 1 µg/mL
- MIC of Compound (μg/ml) in the presence of colistin (2 μg/ml) ([7]; E. coli colistin-resistant strain #3): 1 µg/mL
- MIC of Compound (μg/ml) in the presence of colistin (2 μg/ml) ([7]; E. coli colistin-resistant strain #26): 1 µg/mL
- MIC of Compound (μg/ml) in the presence of colistin (2 μg/ml) ([7]; E. coli colistin-resistant strain #43): 1 µg/mL
- MIC ([7]; read-out: MIC Compound alone, E. coli colistin-resistant strain #1): 4 µg/mL (≈ 9.51 µM)
- MIC ([7]; read-out: MIC Compound alone, E. coli colistin-resistant strain #2): 4 µg/mL (≈ 9.51 µM)
- MIC ([7]; read-out: MIC Compound alone, E. coli colistin-resistant strain #3): 8 µg/mL (≈ 19 µM)
- MIC ([7]; read-out: MIC Compound alone, E. coli colistin-resistant strain #26): 8 µg/mL (≈ 19 µM)
- MIC ([7]; read-out: MIC Compound alone, E. coli colistin-resistant strain #43): 4 µg/mL (≈ 9.51 µM)
- MIC of Compound (μg/ml) in the presence of colistin (2 μg/ml) ([8]; A. baumannii colistin-resistant strain #1): 0.015 µg/mL
- MIC of Compound (μg/ml) in the presence of colistin (2 μg/ml) ([8]; A. baumannii colistin-resistant strain #2): 0.03 µg/mL
- MIC of Compound (μg/ml) in the presence of colistin (2 μg/ml) ([8]; A. baumannii colistin-resistant strain #3): <=0.008 μg/ml
- MIC ([8]; read-out: MIC Compound alone, A. baumannii colistin-resistant strain #1): ≤ 0.03 µg/mL
- MIC ([8]; read-out: MIC Compound alone, A. baumannii colistin-resistant strain #2): 4 µg/mL (≈ 9.51 µM)
- MIC ([8]; read-out: MIC Compound alone, A. baumannii colistin-resistant strain #3): ≤ 0.03 µg/mL
- MIC of Compound (μg/ml) in the presence of PMBN (128 μg/ml) (E. coli (ATCC 25922) [9]; Table 1, (b) No effect): 0.06 µg/mL
- MIC of Compound (μg/ml) in the presence of Colistin (1 μg/ml) (E. coli (ATCC 25922) [9]; Table 2, colistin sub-inhibitory): 1 µg/mL
- MIC of Compound (μg/ml) in the presence of PMB (0.5 μg/ml) (E. coli (ATCC 25922) [9]; Table 3, PMB sub-inhibitory): 1 µg/mL
- MIC of Compound (μg/ml) in the presence of PMBN (32 μg/ml) (E. coli (ATCC 25922) [9]; Table 12, (b) No significant effect): 0.12 µg/mL
- MIC of Compound (μg/ml) in the presence of PMBN (128 μg/ml) [10]: 0.25 µg/mL
- MIC of Compound (μg/ml) in the presence of PMBN (128 μg/ml) [11]: <=0.008 μg/ml
- MIC of Compound (μg/ml) in the presence of PMBN (128 μg/ml) (E. cloaceae (ATCC 13047) [12]; Table 6): 0.5 µg/mL
- MIC Compound alone (E. cloaceae (ATCC 13047) [12]; Table 7): >64 µg/mL
- MIC of Compound (μg/ml) in the presence of colistin (2 μg/ml) (E. cloaceae (ATCC 13047) [12]; Table 7, colistin non-inhibitory): <=0.12 μg/ml
- MIC of Compound (μg/ml) in the presence of PMBN (32 μg/ml) [13]: 2 µg/mL
- MIC (E. coli (ATCC 25922) [14]; ATCC25922, read-out: MIC Compound alone, Table 1): 4 µg/mL (≈ 9.51 µM)
- MIC (E. coli (ATCC 25922) [14]; ATCC25922, read-out: MIC Compound alone, Table 2): 4 µg/mL (≈ 9.51 µM)
- MIC (E. coli (ATCC 25922) [14]; ATCC25922, read-out: MIC Compound alone, Table 3): 4 µg/mL (≈ 9.51 µM)
- MIC (E. coli (ATCC 25922) [14]; ATCC25922, read-out: MIC Compound alone, Table 12): > 2 µg/mL
- MIC [15]: 4 µg/mL (≈ 9.51 µM)
- MIC [16]: > 64 µg/mL
- MIC (E. cloaceae (ATCC 13047) [17]): > 64 µg/mL
- MIC [18]: > 16 µg/mL
